Experimental data taken from patent publication US11248024B2, “Noxa-derived, cell death-inducing peptide eMTD” (INDUSTRY-ACADEMIC COOPERATION FOUNDATION, CHOSUN UNIVERSITY, priority 2019, dated 2022).
Ends that are not written are not given here.

Experiments:
MDA-MB-231 cells = experiment: Atomic force microscopy of pores formed on the cell membrane; type: cell-based
Description: In this regard, MDA-MB-231 cells were treated with eMTDΔ4 (SEQ ID NO: 2) and pores formed on the cell membrane were observed using an atomic force microscope.

CT26 = experiment: MTS assay, relative cell viability, CT26; type: cell-based, murine
Description: Individual cell lines (HeLa, CT26, and B16F10) were purchased from the Korean Cell Line Bank. Dulbecco's modified Eagle's medium (DMEM), trypsin-EDTA, fetal bovine serum (FBS), and Hank's balanced salt solution (HBSS) were products from Gibco (Thermo Fisher).
Each of the cell lines was cultured in DMEM supplemented with 10% FBS in an incubator maintained at 37° C. and 5% 002.
Examination was made to see whether the peptide has the activity of inducing cell death in other cancer cell lines. […]

HeLa = experiment: MTS assay, relative cell viability, HeLa; type: cell-based, human; details: 10 μM, Table 4
HeLa cells [1] = experiment: Mitochondrial ROS generation, MitoSox, confocal; type: cell-based, human; details: MitoSox 5 μM, 10 min, 20 μM peptide (FIG. 8)
Description: In brief, HeLa cells were grown to 70% confluency on a Lab-Tek chamber glass slide one day before the experiment. The cells were stained for 10 min with 5 μM of the mitochondrial ROS indicator MitoSox (Invitrogen) in order to visualize ROS generation. Then, the cells were incubated with eMTDΔ4 (SEQ ID NO: 2) for 10 min during which confocal micrographic images were taken to monitor cell morphologies and ROS generation.

[2] = tested on: mitochondria isolated from livers of BalB/C mice; experiment: Mitochondrial swelling, absorbance at 540 nm / TEM; type: biochemical; details: for Mitochondrial swelling, relative absorbance at 540 nm: peptides 25 μM, Ca2+ 200 μM, CsA 20 μM
Description: First, livers excised from 6-week-old BalB/C mice were immersed in buffer (250 mM mannitol, […], 5 mM HEPES, pH 7.4, 0.1 mM PMSF and 4 rotenone) and completely homogenized using a Teflon Potter-Elvehjem grinder (Sigma). The ground liver was centrifuged at 1000×g for 10 min at 4° C. and the supernatants were centrifuged at 10,000×g for 10 min at 4° C. The pellets thus obtained were suspended in a regeneration buffer (250 mM sucrose, 10 mM HEPES, pH 7.4, 5 mM sodium succinate, 2 mM potassium phosphate, 0.1 mM PMSF, 25 μM EGTA, and 4 rotenone).
The mitochondria thus obtained were treated with 25 μM of eMTD (SEQ ID NO: 1) or eMTDΔ4 (SEQ ID NO: 2), followed by reading absorbance at 540 nm to determine mitochondrial swelling.

[3] = Two-step assay, damage on lipid membrane of liposomes (TbCl3/DPA fluorescence); type: biochemical; details: for Relative Fluorescence Intensity: liposomes, excitation 276 nm, read at 490 nm
Description: In brief, DOPS, DOPE, and DOPC (Avanti Polar Lipids) were dissolved at the ratio of 2:4:3 in chloroform, followed by vaporization. The residue was again dissolved at the concentration of 2 mg/mL in TbCl3 buffer (15 mM TbCl3, 50 mM sodium citrate, 20 mM HEPES, 150 mM NaCl, pH 7.4). The lipid mixture was extruded by Mini extruder (Avanti Polar Lipids) with a 400 nm to prepare liposomes which were washed with washing buffer (150 mM NaCl, 20 mM HEPES, pH 7.4) and then resuspended in an assay buffer (50 DPA, […], 20 mM HEPES, pH 7.4). The suspension was plated into 96-well plates and treated with 0, 10, or 25 μM of eMTD (SEQ ID NO: 1) or eMTDΔ4 (SEQ ID NO: 2). After stimulation with 276 nm laser, fluorescence was read at 490 nm.

HeLa cells [4] = experiment: Mitochondrial PTP opening, calcein AM and cobalt ions; type: cell-based, human; details: calcein AM 1 μM and cobalt ions 2 mM
Description: Mitochondria are known to open permeability transition pores (PTP) to allow cytosolic calcium influx. The observation that eMTDΔ4 (SEQ ID NO: 2) migrates to mitochondria and induces cytosolic calcium influx led to investigating the association of the action of eMTDΔ4 (SEQ ID NO: 2) with PTP. To this end, PTP opening was monitored using calcein AM and cobalt ions.
In brief, HeLa cells were grown on a Lab-Tek chamber glass slide one day before the experiment. Immediately before the experiment, the cells were stained with 1 μM of calcein AM and 2 mM of cobalt ions for 20 min and then with 0.1 μM of MitoTracker Red for 2 min. When PTP is opened, mitochondrial calcein AM meets cobalt ions so that the fluorescence of calcein AM is quenched.

KLNFRQKLLNLISKLF [eMTDΔ4]
Counts of membrane pores (MDA-MB-231 cells; Length 0.675~0.975, t = 30 sec): 38.03
Counts of membrane pores (MDA-MB-231 cells; Length 0.675~0.975, t = 2 min): 20.63
Counts of membrane pores (MDA-MB-231 cells; Length 0.675~0.975, t = 5 min): 14.81
Counts of membrane pores (MDA-MB-231 cells; Length 0.675~0.975, t = 40 min): 2.5
Counts of membrane pores (MDA-MB-231 cells; Length 1.025~1.325, t = 30 sec): 43.66
Counts of membrane pores (MDA-MB-231 cells; Length 1.025~1.325, t = 2 min): 38.1
Counts of membrane pores (MDA-MB-231 cells; Length 1.025~1.325, t = 5 min): 39.51
Counts of membrane pores (MDA-MB-231 cells; Length 1.025~1.325, t = 40 min): 22.5
Counts of membrane pores (MDA-MB-231 cells; Length 1.375~1.675, t = 30 sec): 9.859
Counts of membrane pores (MDA-MB-231 cells; Length 1.375~1.675, t = 2 min): 20.63
Counts of membrane pores (MDA-MB-231 cells; Length 1.375~1.675, t = 5 min): 20.99
Counts of membrane pores (MDA-MB-231 cells; Length 1.375~1.675, t = 40 min): 22.5
Counts of membrane pores (MDA-MB-231 cells; Length 1.725~2.025, t = 30 sec): 4.225
Counts of membrane pores (MDA-MB-231 cells; Length 1.725~2.025, t = 2 min): 14.29
Counts of membrane pores (MDA-MB-231 cells; Length 1.725~2.025, t = 5 min): 13.58
Counts of membrane pores (MDA-MB-231 cells; Length 1.725~2.025, t = 40 min): 22.5
Counts of membrane pores (MDA-MB-231 cells; Length 2.075~2.725, t = 30 sec): 2.817
Counts of membrane pores (MDA-MB-231 cells; Length 2.075~2.725, t = 2 min): 6.349
Counts of membrane pores (MDA-MB-231 cells; Length 2.075~2.725, t = 5 min): 9.877
Counts of membrane pores (MDA-MB-231 cells; Length 2.075~2.725, t = 40 min): 22.5
Counts of membrane pores (MDA-MB-231 cells; Length 2.775<, t = 30 sec): 0
Counts of membrane pores (MDA-MB-231 cells; Length 2.775<, t = 2 min): 0
Counts of membrane pores (MDA-MB-231 cells; Length 2.775<, t = 5 min): 1.235
Counts of membrane pores (MDA-MB-231 cells; Length 2.775<, t = 40 min): 7.5
Counts of membrane pores (MDA-MB-231 cells; Length >0.625, t = 30 sec): 1.408
Counts of membrane pores (MDA-MB-231 cells; Length >0.625, t = 2 min): 0
Counts of membrane pores (MDA-MB-231 cells; Length >0.625, t = 5 min): 0
Counts of membrane pores (MDA-MB-231 cells; Length >0.625, t = 40 min): 0
pore formation on cell membrane (in words) (MDA-MB-231 cells; MDA-MB-231, FIG. 10d and Table 7): larger pores were formed with time
Viability (%) (CT26; CT26, 10 μM): 69%
Viability (%) (CT26; CT26, 20 μM): 21%
induction of cell death (in words) (CT26; CT26, FIG. 3 and Table 4): induce cell death
Viability (%) (HeLa): 47%
mitochondrial ROS level (HeLa cells [1]): abruptly increased in ROS level just after the cell membrane bubbling
mitochondrial swelling (in words) ([2]; 25 μM, absorbance 540 nm and TEM, FIGS. 6A and 6B): induce mitochondrial swelling
Mitochondrial swelling, relative absorbance at 540 nm ([2]; Minute 0): 100%
Mitochondrial swelling, relative absorbance at 540 nm ([2]; Minute 10): 79%
Mitochondrial swelling, relative absorbance at 540 nm ([2]; Minute 20): 74%
Mitochondrial swelling, relative absorbance at 540 nm ([2]; Minute 30): 70%
Mitochondrial swelling, relative absorbance at 540 nm ([2]; Minute 40): 68%
Mitochondrial swelling, relative absorbance at 540 nm ([2]; Minute 50): 66%
Mitochondrial swelling, relative absorbance at 540 nm ([2]; Minute 60): 65%
liposome lipid membrane damage (in words) ([3]; FIGS. 10A to 10C and Table 6): higher fluorescence intensity was detected
Relative Fluorescence Intensity ([3]; 10 μM): 25%
Relative Fluorescence Intensity ([3]; 25 μM): 51%
mitochondrial PTP opening (calcein AM fluorescence) (HeLa cells [4]): fluorescence of mitochondrial calcein AM was quenched
